Source: paper PMC5218480 (PLoS ONE, 2017)

Tested on: MV-4-11 cells
Assay: Gene expression microarray analysis (Affymetrix PrimeView) and GSEA
Format: cell-based, human
Parameters: RFU PODN (11730768_x_at) / Fold change /veh PODN (11730768_x_at) / RFU LINC00158 (11744669_a_at) / Fold change /veh LINC00158 (11744669_a_at) / RFU DUSP10 (11751237_a_at) / Fold change /veh DUSP10 (11751237_a_at) / RFU ID3 (11757404_x_at) / Fold change /veh ID3 (11757404_x_at) / RFU PLEKHG5 (11737974_s_at) / Fold change /veh PLEKHG5 (11737974_s_at) / RFU LRRC4B (11730491_at) / Fold change /veh LRRC4B (11730491_at) / RFU GIMAP4 (11747438_a_at) / Fold change /veh GIMAP4 (11747438_a_at) / RFU KRT8 (11758183_x_at) / Fold change /veh KRT8 (11758183_x_at) / RFU CNN1 (11734310_a_at) / Fold change /veh CNN1 (11734310_a_at) / RFU VPS37D (11726825_at) / Fold change /veh VPS37D (11726825_at) / RFU C10orf10 (11716522_x_at) / Fold change /veh C10orf10 (11716522_x_at) / RFU KIR2DL2 /// KIR2DL4 /// KIR2DL5A /// KIR2DL5B /// KIR2DS1 /// KIR2DS2 /// KIR2DS3 /// KIR2DS4 /// KIR3DL3 /// KIR3DL3 /// KIR3DS1 (11738374_at) / Fold change /veh KIR2DL2 /// KIR2DL4 /// KIR2DL5A /// KIR2DL5B /// KIR2DS1 /// KIR2DS2 /// KIR2DS3 /// KIR2DS4 /// KIR3DL3 /// KIR3DL3 /// KIR3DS1 (11738374_at) / RFU C1QL1 (11718748_at) / Fold change /veh C1QL1 (11718748_at) / RFU TMPRSS4 (11747572_a_at) / Fold change /veh TMPRSS4 (11747572_a_at) / RFU HAMP (11756126_x_at) / Fold change /veh HAMP (11756126_x_at) / RFU RNFT2 (11725882_a_at) / Fold change /veh RNFT2 (11725882_a_at) / RFU NR4A2 (11747474_a_at) / Fold change /veh NR4A2 (11747474_a_at) / RFU ABCC12 (11746883_a_at) / Fold change /veh ABCC12 (11746883_a_at) / RFU TMEM136 (11760407_x_at) / Fold change /veh TMEM136 (11760407_x_at) / RFU CLDN22 /// WWC2 (11732394_at) / Fold change /veh CLDN22 /// WWC2 (11732394_at) / RFU HLA-DPB1 (11760878_x_at) / Fold change /veh HLA-DPB1 (11760878_x_at) / RFU SPINT1 (11716480_a_at) / Fold change /veh SPINT1 (11716480_a_at) / RFU GAP43 (11754022_s_at) / Fold change /veh GAP43 (11754022_s_at) / RFU A4GNT (11735810_at) / Fold change /veh A4GNT (11735810_at) / RFU PRB3 (11715151_x_at) / Fold change /veh PRB3 (11715151_x_at) / RFU TUBB4B (11761932_at) / Fold change /veh TUBB4B (11761932_at) / RFU CAPN14 (11732068_a_at) / Fold change /veh CAPN14 (11732068_a_at) / RFU TMCC2 (11721928_a_at) / Fold change /veh TMCC2 (11721928_a_at) / RFU IRGQ (11745062_a_at) / Fold change /veh IRGQ (11745062_a_at) / RFU FAM174B (11720279_a_at) / Fold change /veh FAM174B (11720279_a_at) / RFU TMPRSS4 (11748680_a_at) / Fold change /veh TMPRSS4 (11748680_a_at) / RFU FAM212B (11763350_a_at) / Fold change /veh FAM212B (11763350_a_at) / RFU PLEKHG5 (11743358_a_at) / Fold change /veh PLEKHG5 (11743358_a_at) / RFU ZSCAN30 (11745921_a_at) / Fold change /veh ZSCAN30 (11745921_a_at) / RFU CMKLR1 (11741424_a_at) / Fold change /veh CMKLR1 (11741424_a_at) / RFU LOC101060620 /// MAPK8IP1 (11723275_at) / Fold change /veh LOC101060620 /// MAPK8IP1 (11723275_at) / RFU SPTSSB (11747773_x_at) / Fold change /veh SPTSSB (11747773_x_at) / RFU PRSS12 (11739890_at) / Fold change /veh PRSS12 (11739890_at) / RFU BIN1 (11741810_x_at) / Fold change /veh BIN1 (11741810_x_at) / RFU WNT11 (11732464_a_at) / Fold change /veh WNT11 (11732464_a_at) / RFU C10orf10 (11716521_a_at) / Fold change /veh C10orf10 (11716521_a_at) / RFU C5orf56 (11738089_at) / Fold change /veh C5orf56 (11738089_at) / RFU CYB561 (11721691_x_at) / Fold change /veh CYB561 (11721691_x_at) / RFU ANKRD19P (11752326_a_at) / Fold change /veh ANKRD19P (11752326_a_at) / RFU OR2T12 /// OR2T33 /// OR2T8 (11738714_s_at) / Fold change /veh OR2T12 /// OR2T33 /// OR2T8 (11738714_s_at) / RFU VCAN (11748164_a_at) / Fold change /veh VCAN (11748164_a_at) / RFU JSRP1 (11732532_at) / Fold change /veh JSRP1 (11732532_at) / RFU KRTAP10-11 (11738290_x_at) / Fold change /veh KRTAP10-11 (11738290_x_at) / RFU MYO3A (11730013_a_at) / Fold change /veh MYO3A (11730013_a_at) / RFU EBF3 (11725865_a_at) / Fold change /veh EBF3 (11725865_a_at) / RFU CAMK2N1 (11719241_x_at) / Fold change /veh CAMK2N1 (11719241_x_at) / RFU C5orf56 (11738088_a_at) / Fold change /veh C5orf56 (11738088_a_at) / RFU OLFML3 (11715873_a_at) / Fold change /veh OLFML3 (11715873_a_at) / RFU LOC100653217 /// NTM (11731650_a_at) / Fold change /veh LOC100653217 /// NTM (11731650_a_at) / RFU MAPK11 (11762145_a_at) / Fold change /veh MAPK11 (11762145_a_at) / RFU FIZ1 (11724087_x_at) / Fold change /veh FIZ1 (11724087_x_at) / RFU OASL (11726364_x_at) / Fold change /veh OASL (11726364_x_at) / RFU SOX15 (11748057_x_at) / Fold change /veh SOX15 (11748057_x_at) / RFU CD79A (11719716_a_at) / Fold change /veh CD79A (11719716_a_at) / RFU HIST1H1D (11736915_at) / Fold change /veh HIST1H1D (11736915_at) / RFU CASKIN2 (11723855_a_at) / Fold change /veh CASKIN2 (11723855_a_at) / RFU LOC730098 (11760151_x_at) / Fold change /veh LOC730098 (11760151_x_at) / RFU OR4N2 (11742367_at) / Fold change /veh OR4N2 (11742367_at) / RFU PRRT2 (11749266_a_at) / Fold change /veh PRRT2 (11749266_a_at) / RFU SNX32 (11753110_a_at) / Fold change /veh SNX32 (11753110_a_at) / RFU CDHR5 (11726645_a_at) / Fold change /veh CDHR5 (11726645_a_at) / RFU RCAN1 (11760418_a_at) / Fold change /veh RCAN1 (11760418_a_at) / RFU FAM167A (11723789_a_at) / Fold change /veh FAM167A (11723789_a_at) / RFU FAM26E (11764081_at) / Fold change /veh FAM26E (11764081_at) / RFU ISYNA1 (11749810_s_at) / Fold change /veh ISYNA1 (11749810_s_at) / RFU ACY1 (11761880_at) / Fold change /veh ACY1 (11761880_at) / RFU 11764098_at / Fold change /veh 11764098_at / RFU SAMD14 (11745864_x_at) / Fold change /veh SAMD14 (11745864_x_at) / RFU NPB (11741838_a_at) / Fold change /veh NPB (11741838_a_at) / RFU TMPRSS6 (11731388_a_at) / Fold change /veh TMPRSS6 (11731388_a_at) / RFU KRTAP10-2 (11738614_at) / Fold change /veh KRTAP10-2 (11738614_at) / RFU ARHGAP8 /// PRR5-ARHGAP8 (11727945_x_at) / Fold change /veh ARHGAP8 /// PRR5-ARHGAP8 (11727945_x_at) / RFU KRTAP5-7 /// NADSYN1 (11734609_at) / Fold change /veh KRTAP5-7 /// NADSYN1 (11734609_at) / RFU RASL12 (11751679_a_at) / Fold change /veh RASL12 (11751679_a_at) / RFU CDKN2B (11736163_a_at) / Fold change /veh CDKN2B (11736163_a_at) / RFU PRF1 (11729649_at) / Fold change /veh PRF1 (11729649_at) / RFU, ZNF638 /// ZNF638-IT1 / Fold change vs veh, ZNF638 /// ZNF638-IT1 / RFU, PANK3 / Fold change vs veh, PANK3 / RFU, SH3YL1 / Fold change vs veh, SH3YL1 / RFU, ZEB2 / Fold change vs veh, ZEB2 / RFU, NRIP1 / Fold change vs veh, NRIP1 / RFU, PTTG1IP / Fold change vs veh, PTTG1IP / RFU, CAPN2 / Fold change vs veh, CAPN2 / RFU, MED14 / Fold change vs veh, MED14 / RFU, SNORA58 / Fold change vs veh, SNORA58 / RFU, C1orf63 / Fold change vs veh, C1orf63 / RFU, LRRFIP1 / Fold change vs veh, LRRFIP1 / RFU, NDUFAF7 / Fold change vs veh, NDUFAF7 / RFU, SLC12A2 / Fold change vs veh, SLC12A2 / RFU, IBTK / Fold change vs veh, IBTK / RFU, ESF1 / Fold change vs veh, ESF1 / Fold change vs veh, TMEM50B / RFU, TAOK1 / Fold change vs veh, TAOK1 / RFU, ACBD3 / Fold change vs veh, ACBD3 / RFU, TMA16 / Fold change vs veh, TMA16 / RFU, RWDD3 / Fold change vs veh, RWDD3 / RFU, BCAT1 / Fold change vs veh, BCAT1 / RFU, EDEM3 / Fold change vs veh, EDEM3 / RFU, TMEM33 / Fold change vs veh, TMEM33 / RFU, WDR75 / Fold change vs veh, WDR75 / RFU, AHCTF1 / Fold change vs veh, AHCTF1 / RFU, TFRC / Fold change vs veh, TFRC / RFU, ZDHHC17 / Fold change vs veh, ZDHHC17 / RFU, NOM1 / Fold change vs veh, NOM1 / RFU, ARL8B / Fold change vs veh, ARL8B / RFU, ZBTB11 / Fold change vs veh, ZBTB11 / RFU, TAMM41 / Fold change vs veh, TAMM41 / RFU, KIAA1704 /// LOC100996395 / Fold change vs veh, KIAA1704 /// LOC100996395 / RFU, ING1 / Fold change vs veh, ING1 / RFU, TRMT61B / Fold change vs veh, TRMT61B / RFU, FUBP3 / Fold change vs veh, FUBP3 / RFU, TP53 / Fold change vs veh, TP53 / RFU, TNKS2 / Fold change vs veh, TNKS2 / RFU, ZFP14 / Fold change vs veh, ZFP14 / RFU, ACTR2 / Fold change vs veh, ACTR2 / RFU, PPP3R1 / Fold change vs veh, PPP3R1 / RFU, PIK3R1 / Fold change vs veh, PIK3R1 / RFU, HNRNPA1 / Fold change vs veh, HNRNPA1 / RFU, RNF170 / Fold change vs veh, RNF170 / RFU, ZNF28 / Fold change vs veh, ZNF28 / RFU, RNGTT / Fold change vs veh, RNGTT / RFU, OGT / Fold change vs veh, OGT / RFU, BRD1 / Fold change vs veh, BRD1 / RFU, MARS / Fold change vs veh, MARS / RFU, ZNF655 / Fold change vs veh, ZNF655 / RFU, FAHD1 / Fold change vs veh, FAHD1 / RFU, BDP1 / Fold change vs veh, BDP1 / RFU, LRRCC1 / Fold change vs veh, LRRCC1 / RFU, ARID1A / Fold change vs veh, ARID1A / RFU, ZNF146 / Fold change vs veh, ZNF146 / RFU, ZNF330 / Fold change vs veh, ZNF330 / RFU, GPN3 / Fold change vs veh, GPN3 / RFU, C9orf123 / Fold change vs veh, C9orf123 / RFU, N4BP2L2 / Fold change vs veh, N4BP2L2 / RFU, ARFIP1 / Fold change vs veh, ARFIP1 / RFU, FAM179B / Fold change vs veh, FAM179B / RFU, BCL10 / Fold change vs veh, BCL10 / RFU, UHRF1BP1L / Fold change vs veh, UHRF1BP1L / RFU, BET1 / Fold change vs veh, BET1 / RFU, CNOT2 / Fold change vs veh, CNOT2 / RFU, ZNF268 / Fold change vs veh, ZNF268 / Fold change vs veh, ZNF507 / RFU, DGCR2 / Fold change vs veh, DGCR2 / RFU, WDSUB1 / Fold change vs veh, WDSUB1 / Fold change vs veh, HSP90B1 /// MIR3652 / RFU, ADSS / Fold change vs veh, ADSS / RFU, GK / Fold change vs veh, GK / RFU, ZNF148 / Fold change vs veh, ZNF148 / RFU, TAF9 / Fold change vs veh, TAF9 / RFU, SLC1A5 / Fold change vs veh, SLC1A5 / RFU, SLMO2 / Fold change vs veh, SLMO2 / RFU, ABCC4 / Fold change vs veh, ABCC4 / RFU, LOC101060439 /// RAP1B / Fold change vs veh, LOC101060439 /// RAP1B / RFU, RFX7 / Fold change vs veh, RFX7 / RFU, GTPBP10 / Fold change vs veh, GTPBP10 / RFU, CNEP1R1 / Fold change vs veh, CNEP1R1 / RFU, BIVM-ERCC5 /// ERCC5 / Fold change vs veh, BIVM-ERCC5 /// ERCC5 / RFU, ILF3 / Fold change vs veh, ILF3 / RFU 11762660_at / Fold change /veh 11762660_at / RFU VCAN (11757783_s_at) / Fold change /veh VCAN (11757783_s_at) / RFU DDX43 (11728927_at) / Fold change /veh DDX43 (11728927_at) / RFU KRT8 (11758188_x_at) / Fold change /veh KRT8 (11758188_x_at) / RFU NKD1 (11759106_at) / Fold change /veh NKD1 (11759106_at) / RFU SRD5A1 (11742802_a_at) / Fold change /veh SRD5A1 (11742802_a_at) / RFU TPSAB1 /// TPSB2 (11721975_s_at) / Fold change /veh TPSAB1 /// TPSB2 (11721975_s_at) / RFU GSTM3 (11746129_a_at) / Fold change /veh GSTM3 (11746129_a_at) / RFU IL23R (11737362_x_at) / Fold change /veh IL23R (11737362_x_at) / RFU TMEM51 (11727254_a_at) / Fold change /veh TMEM51 (11727254_a_at) / RFU PIWIL2 (11732686_x_at) / Fold change /veh PIWIL2 (11732686_x_at) / RFU ORM1 (11744905_x_at) / Fold change /veh ORM1 (11744905_x_at) / RFU CCDC152 (11743942_at) / Fold change /veh CCDC152 (11743942_at) / RFU ECM1 (11717891_a_at) / Fold change /veh ECM1 (11717891_a_at) / RFU IL23R (11748794_a_at) / Fold change /veh IL23R (11748794_a_at) / RFU TNFAIP8L3 (11732012_x_at) / Fold change /veh TNFAIP8L3 (11732012_x_at) / RFU MBOAT4 (11741988_at) / Fold change /veh MBOAT4 (11741988_at) / RFU 11764193_at / Fold change /veh 11764193_at / RFU TMEM53 (11763286_at) / Fold change /veh TMEM53 (11763286_at) / RFU MAGEB2 (11727129_at) / Fold change /veh MAGEB2 (11727129_at) / RFU TMEM200A (11744735_a_at) / Fold change /veh TMEM200A (11744735_a_at) / RFU CCDC152 (11751479_a_at) / Fold change /veh CCDC152 (11751479_a_at) / RFU FAM211A (11726209_a_at) / Fold change /veh FAM211A (11726209_a_at) / RFU RGS16 (11746705_a_at) / Fold change /veh RGS16 (11746705_a_at) / RFU VCAN (11755009_s_at) / Fold change /veh VCAN (11755009_s_at) / RFU RHOB (11743442_s_at) / Fold change /veh RHOB (11743442_s_at) / RFU RGS16 (11720943_a_at) / Fold change /veh RGS16 (11720943_a_at) / RFU RGS16 (11720944_at) / Fold change /veh RGS16 (11720944_at) / RFU, VPS4B / Fold change vs veh, VPS4B / RFU, CREB1 / Fold change vs veh, CREB1 / RFU, DNAJC13 / Fold change vs veh, DNAJC13 / RFU, GNAQ / Fold change vs veh, GNAQ / RFU, CDK5R1 / Fold change vs veh, CDK5R1 / RFU, ZRANB3 / Fold change vs veh, ZRANB3 / RFU, CUL4A / Fold change vs veh, CUL4A / RFU, CCNY / Fold change vs veh, CCNY / RFU, UFL1 / Fold change vs veh, UFL1 / RFU, COG3 / Fold change vs veh, COG3 / RFU, DIAPH2 / Fold change vs veh, DIAPH2 / RFU, SKA2 / Fold change vs veh, SKA2 / RFU, AFF3 / Fold change vs veh, AFF3 / RFU, LMF1 / Fold change vs veh, LMF1 / RFU, IPO11 / Fold change vs veh, IPO11 / RFU, DFFB / Fold change vs veh, DFFB / RFU, FOXP1 / Fold change vs veh, FOXP1 / RFU, CARD8 / Fold change vs veh, CARD8 / RFU, STRN3 / Fold change vs veh, STRN3 / RFU, ADK / Fold change vs veh, ADK / RFU, RASSF2 / Fold change vs veh, RASSF2 / RFU, WIPF1 / Fold change vs veh, WIPF1 / RFU, LARP1B / Fold change vs veh, LARP1B / RFU, RASA1 / Fold change vs veh, RASA1 / RFU, RB1 / Fold change vs veh, RB1 / RFU, PPFIA1 / Fold change vs veh, PPFIA1 / RFU, MAT2A / Fold change vs veh, MAT2A / RFU, CCT5 / Fold change vs veh, CCT5 / RFU, WDR92 / Fold change vs veh, WDR92 / RFU, CUX1 / Fold change vs veh, CUX1 / RFU, TTC7A / Fold change vs veh, TTC7A / RFU, TMEM135 / Fold change vs veh, TMEM135 / RFU, DEPTOR / Fold change vs veh, DEPTOR / RFU, CPM / Fold change vs veh, CPM / RFU, DNAJB6 / Fold change vs veh, DNAJB6 / RFU, CACNA2D3 / Fold change vs veh, CACNA2D3 / RFU, DTX4 / Fold change vs veh, DTX4 / RFU, TFCP2 / Fold change vs veh, TFCP2 / RFU, GMCL1 /// GMCL1P1 / Fold change vs veh, GMCL1 /// GMCL1P1 / RFU, AEBP2 / Fold change vs veh, AEBP2 / RFU, SNHG1 /// SNORD22 /// SNORD25 /// SNORD26 /// SNORD27 /// SNORD28 /// SNORD29 /// SNORD31 / Fold change vs veh, SNHG1 /// SNORD22 /// SNORD25 /// SNORD26 /// SNORD27 /// SNORD28 /// SNORD29 /// SNORD31 / Fold change (Aza/veh), C12orf56 (ProbeSet 11735607_a_at) / Fold change (ACY-1035/veh), C12orf56 (ProbeSet 11735607_a_at) / Fold change (Aza/veh), FGFR1OP (ProbeSet 11751329_s_at) / Fold change (ACY-1035/veh), FGFR1OP (ProbeSet 11751329_s_at) / Fold change (Aza/veh), VPS36 (ProbeSet 11739960_a_at) / Fold change (ACY-1035/veh), VPS36 (ProbeSet 11739960_a_at) / RFU SYPL1 (11715823_x_at) / Fold change /veh SYPL1 (11715823_x_at) / RFU IGFBP7 (11715501_s_at) / Fold change /veh IGFBP7 (11715501_s_at) / RFU REEP3 (11722064_at) / Fold change /veh REEP3 (11722064_at) / RFU IGLL1 (11728026_x_at) / Fold change /veh IGLL1 (11728026_x_at): dose or concentration left out as unconfirmed
Conditions: ProbeSet 11718569_a_at; LIST D

## Nc1ncn([C@@H]2O[C@H](CO)[C@@H](O)[C@H]2O)c(=O)n1 [azacitidine]
  Fold change vs veh, WIPF1: 0.72
